Experimental data reported in paper PMC9030254, “Target Hopping from Protein Kinases to PXR: Identification of Small-Molecule Protein Kinase Inhibitors as Selective Modulators of Pregnane X Receptor from TüKIC Library” (Cells, 2022).

Columns and labels:
Assay in all cases: Kinase profiling
Format in all cases: biochemical
BMX = target: T1, BMX (Homo sapiens, UniProt P51813)
T1 construct: purchased ProQinase (Freiburg, Germany)
T1 sequence (P51813 1-675): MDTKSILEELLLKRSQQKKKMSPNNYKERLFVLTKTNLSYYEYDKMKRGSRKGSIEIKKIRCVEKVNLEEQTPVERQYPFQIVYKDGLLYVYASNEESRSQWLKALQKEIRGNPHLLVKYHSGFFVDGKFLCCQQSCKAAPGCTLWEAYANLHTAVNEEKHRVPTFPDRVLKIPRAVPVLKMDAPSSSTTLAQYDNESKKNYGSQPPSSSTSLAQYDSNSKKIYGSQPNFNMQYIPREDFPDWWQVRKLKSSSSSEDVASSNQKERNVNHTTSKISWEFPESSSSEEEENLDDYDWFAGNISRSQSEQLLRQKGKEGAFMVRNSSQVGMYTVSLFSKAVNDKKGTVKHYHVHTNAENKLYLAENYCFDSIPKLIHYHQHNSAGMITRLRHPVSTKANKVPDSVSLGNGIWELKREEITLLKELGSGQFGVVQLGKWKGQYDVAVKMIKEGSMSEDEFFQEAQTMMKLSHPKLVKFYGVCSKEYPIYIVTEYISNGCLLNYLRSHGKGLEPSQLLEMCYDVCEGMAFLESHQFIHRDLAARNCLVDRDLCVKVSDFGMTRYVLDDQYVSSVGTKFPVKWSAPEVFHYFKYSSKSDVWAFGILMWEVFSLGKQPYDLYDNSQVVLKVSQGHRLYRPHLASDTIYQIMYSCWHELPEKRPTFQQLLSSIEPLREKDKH
Protocol: (§1) The analysis was performed by ProQinase (Freiburg, Germany).

CK1gamma3 = target: T2, CK1gamma3 (Homo sapiens, UniProt Q9Y6M4)
T2 construct: purchased ProQinase (Freiburg, Germany)
T2 sequence (Q9Y6M4 whole entry): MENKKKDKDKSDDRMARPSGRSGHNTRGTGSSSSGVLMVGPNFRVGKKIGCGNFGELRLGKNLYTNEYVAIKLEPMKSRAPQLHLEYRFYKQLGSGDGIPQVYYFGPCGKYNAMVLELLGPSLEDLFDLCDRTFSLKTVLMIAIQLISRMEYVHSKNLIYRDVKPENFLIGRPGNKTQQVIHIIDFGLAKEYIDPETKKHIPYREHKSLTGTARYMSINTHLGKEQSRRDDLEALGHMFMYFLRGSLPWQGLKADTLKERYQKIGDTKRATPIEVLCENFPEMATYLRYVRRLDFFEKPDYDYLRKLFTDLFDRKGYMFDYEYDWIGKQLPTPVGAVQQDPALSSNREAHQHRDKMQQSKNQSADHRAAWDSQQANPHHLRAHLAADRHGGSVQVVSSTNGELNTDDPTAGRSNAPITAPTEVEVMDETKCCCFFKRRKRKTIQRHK
Protocol: as §1

MATK = target: T3, MATK (Homo sapiens, UniProt P42679)
T3 construct: purchased ProQinase (Freiburg, Germany)
T3 sequence (P42679 1-507): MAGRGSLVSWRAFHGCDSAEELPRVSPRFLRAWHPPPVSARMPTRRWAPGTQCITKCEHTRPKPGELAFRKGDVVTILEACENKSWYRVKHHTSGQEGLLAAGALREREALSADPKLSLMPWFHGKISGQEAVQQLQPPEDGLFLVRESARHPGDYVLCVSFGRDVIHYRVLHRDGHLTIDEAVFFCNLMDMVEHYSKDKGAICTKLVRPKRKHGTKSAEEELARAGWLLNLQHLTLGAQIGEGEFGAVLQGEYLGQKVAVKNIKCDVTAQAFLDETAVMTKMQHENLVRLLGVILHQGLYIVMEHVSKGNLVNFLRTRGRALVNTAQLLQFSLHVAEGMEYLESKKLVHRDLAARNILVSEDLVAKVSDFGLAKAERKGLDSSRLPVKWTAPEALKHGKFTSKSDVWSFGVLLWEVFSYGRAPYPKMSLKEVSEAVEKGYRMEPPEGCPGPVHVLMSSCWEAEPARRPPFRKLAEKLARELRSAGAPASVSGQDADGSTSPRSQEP
Protocol: as §1

NEK1 = target: T4, NEK1 (Homo sapiens, UniProt Q96PY6)
T4 construct: purchased ProQinase (Freiburg, Germany)
T4 sequence (Q96PY6 1-1258): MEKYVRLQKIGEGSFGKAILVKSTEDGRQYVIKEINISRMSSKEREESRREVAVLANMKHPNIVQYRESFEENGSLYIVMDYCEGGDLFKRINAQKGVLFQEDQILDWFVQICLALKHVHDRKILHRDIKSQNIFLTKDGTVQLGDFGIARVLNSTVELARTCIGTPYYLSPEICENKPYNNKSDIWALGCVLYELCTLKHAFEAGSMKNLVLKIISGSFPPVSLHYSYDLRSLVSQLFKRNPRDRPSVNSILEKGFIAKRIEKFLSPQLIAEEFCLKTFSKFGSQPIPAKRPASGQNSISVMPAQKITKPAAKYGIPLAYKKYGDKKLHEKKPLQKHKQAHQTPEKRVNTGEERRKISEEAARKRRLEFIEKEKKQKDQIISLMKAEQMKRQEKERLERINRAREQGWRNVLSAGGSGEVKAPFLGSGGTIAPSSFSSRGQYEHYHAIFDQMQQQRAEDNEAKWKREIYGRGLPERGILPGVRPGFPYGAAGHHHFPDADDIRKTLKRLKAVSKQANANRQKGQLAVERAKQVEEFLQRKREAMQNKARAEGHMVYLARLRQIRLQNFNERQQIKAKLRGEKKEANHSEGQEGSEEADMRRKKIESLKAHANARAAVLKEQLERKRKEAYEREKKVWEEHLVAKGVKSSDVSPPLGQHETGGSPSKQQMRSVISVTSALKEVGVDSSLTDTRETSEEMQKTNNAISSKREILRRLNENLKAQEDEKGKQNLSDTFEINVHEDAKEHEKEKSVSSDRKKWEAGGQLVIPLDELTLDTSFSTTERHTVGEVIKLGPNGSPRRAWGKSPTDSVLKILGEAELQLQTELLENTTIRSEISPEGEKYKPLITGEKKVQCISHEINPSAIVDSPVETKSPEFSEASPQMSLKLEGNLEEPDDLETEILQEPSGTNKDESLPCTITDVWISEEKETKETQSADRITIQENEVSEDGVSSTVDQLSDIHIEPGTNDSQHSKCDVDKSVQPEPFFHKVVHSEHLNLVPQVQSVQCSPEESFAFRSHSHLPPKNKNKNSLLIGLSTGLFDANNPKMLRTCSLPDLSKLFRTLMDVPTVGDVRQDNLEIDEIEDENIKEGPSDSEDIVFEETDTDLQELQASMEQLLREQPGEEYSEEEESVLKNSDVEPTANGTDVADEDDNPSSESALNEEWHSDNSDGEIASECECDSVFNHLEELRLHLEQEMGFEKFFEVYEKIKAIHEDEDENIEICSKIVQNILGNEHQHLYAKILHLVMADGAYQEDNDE
Protocol: as §1

| Compound | Residual activity (BMX; 1.0E-05 M) | Residual activity (BMX; 1.0E-06 M) | Residual activity (CK1gamma3; 1.0E-05 M) | Residual activity (CK1gamma3; 1.0E-06 M) | Residual activity (MATK; 1.0E-05 M) | Residual activity (MATK; 1.0E-06 M) | Residual activity (NEK1; 1.0E-05 M) | Residual activity (NEK1; 1.0E-06 M) | inhibition at 10 µM (CK1gamma3; 10 µM, read-out: inhibition of CK1-γ3) |
| --- | --- | --- | --- | --- | --- | --- | --- | --- | --- |
| O=C(Cc1ccccc1)Nc1ccc(F)c(Nc2ccc3c(c2)CCCCC3=O)c1 [Compound 100] | 71 % of control | 111 % of control | 105 % of control | 101 % of control | 86 % of control | 101 % of control | 96 % of control | 98 % of control | – |
| O=C(Nc1ccc(F)c(Nc2ccc3c(c2)CCCCC3=O)c1)c1cccc(F)c1 [Compound 109] | 83 % of control | 100 % of control | 32 % of control | 79 % of control | 95 % of control | 94 % of control | 93 % of control | 96 % of control | ≥ 50% |
